A short description of this data set: gradient 5% acetonitrile 3 min, to 50% in 2 min, to 85% in 15 min, held 3 min, 100 µL/min. To be noted: column: Zorbax Extend-C18 2.1 x 50 mm; eluents: water / acetonitrile, 0.1% formic acid. The method in brief: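 The system's dead and dwell volumes were 40 μL and 900 μL, with a Zorbax Extend-C18 column (2.1 × 50 mm, 1.8 μm) run at 100 μL/min in water and acetonitrile containing 0.1% formic acid each. Pure standards were analyzed in mixtures of ~100 molecules by HPLC–quadrupole time-of-flight mass spectrometry in positive and negative ionization mode. Retention time was assigned from computationally picked, manually inspected adduct peaks.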
`COc1cc(CN2C[C@@H]3C(=O)N(C)C(=O)[C@@H]3C2)cc(OC)c1` returned an RP-LC retention time of 585 s.

The compound `Cc1nn(-c2ccccc2)c(C)c1S(=O)(=O)N1CCC(C(=O)Nc2cccc(Cl)c2C)CC1` yielded an RP-LC retention time of 1000 s.

`Cc1ccc(OCc2nc(C3CN(C(=O)C4(c5ccccc5)CC4)C3)no2)cc1` had an RP-LC retention time of 1030 s.

As for `Cc1oc(-c2[nH]ncc2C(=O)N(C)C)cc1S(=O)(=O)Nc1ccc(Cl)cc1`, the RP-LC retention time is 703 s.

On to `COc1ccc2c(c1)CCc1sc(NC(=O)c3ccc(Br)cc3)nc1-2`, for which the RP-LC retention time stood at 1190 s.

Regarding `COc1ccc(NS(=O)(=O)c2ccc(-c3nnc(C4CCC4)o3)o2)cc1F`, the RP-LC retention time is 868 s.

Compound `COc1ccc(CCNC(=O)c2ccc3[nH]c4c(c3c2)CN(C(C)=O)CC4)cc1OC` registered an RP-LC retention time of 650 s.

As for `COC(=O)c1ccccc1NC(=O)Cn1cccc(-c2nc(-c3ccc(Cl)cc3)no2)c1=O`, the RP-LC retention time stood at 1070 s.

`O=C(Cn1cccc1-c1nnc(-c2ccccc2)o1)Nc1cccc(Cl)c1` had an RP-LC retention time of 1050 s.

The compound `CCOc1ccccc1C(=O)Nc1ccc2c(c1)N(CCOC)CCC2` registered an RP-LC retention time of 1060 s.

In the case of `COc1ccc(OC)c(S(=O)(=O)N2CCC3(C2)C(=O)N(C)c2ccccc23)c1` (centres undefined), the RP-LC retention time turned out to be 853 s.

Turning to `O=S(=O)(c1cccc(-c2nc(-c3ccccc3)no2)c1)N1CCC2(CC1)OCCO2`, the RP-LC retention time came out at 784 s.

In turn, `CCN1CCN(Cc2ccc(C(=O)NCc3ccc(C(F)(F)F)cc3)cc2)C(=O)C1=O` returned an RP-LC retention time of 744 s.

Compound `CCn1cc(C)c(C(=O)O)c1CC(=O)Nc1ccc(F)cc1F` gave an RP-LC retention time of 811 s.

The compound `CCCN1CCN(C(=O)Cc2ccc3nc(NC(C)=O)sc3c2)CC1` had an RP-LC retention time of 578 s.

Take `O=C(Nc1ccc(OCC(=O)N2CCCN(c3ncccn3)CC2)nc1)C1CC1`: the RP-LC retention time was found to be 612 s.

In turn, `O=C(Cc1c[nH]c2ccccc12)NC1(c2nc(-c3ccncc3)no2)CCCCC1` came in with an RP-LC retention time of 807 s.

`CCNc1nc(C)cc(N2CCN(S(=O)(=O)c3ccc(OC)cc3)CC2)n1` showed an RP-LC retention time of 677 s.

Take `CC(C)n1c(CN2CCOCC2)nc2cc(NC(=O)c3ccco3)ccc21`: the RP-LC retention time came out at 619 s.

`COC(=O)c1c(NCC(C)O)c2cc(F)ccc2[nH]c1=O` (centres undefined) registered an RP-LC retention time of 596 s.

`COc1ccccc1-c1noc(C2CCCN2C(=O)c2ccc3cc[nH]c3c2)n1` (centres undefined) gave an RP-LC retention time of 830 s.

`CN(Cc1ccccc1)c1ncc(C(=O)O)c(-c2ccncc2)n1` registered an RP-LC retention time of 675 s.

In turn, `O=c1c2sccc2n(Cc2nc(-c3ccc(F)cc3)no2)c(=O)n1Cc1ccc(F)cc1` yielded an RP-LC retention time of 1100 s.

For `Cc1cc(N2CCN(C)CC2)nc2ccc(NC(=O)NCc3ccc(F)cc3)cc12`, the RP-LC retention time is 556 s.

For the compound `O=C(CCC(=O)N1CC2CCCN2c2ccccc21)NCc1cccs1` (centres undefined), the RP-LC retention time is 865 s.

For `CN(C)S(=O)(=O)c1ccc(C(=O)Nc2nc3c(s2)CCc2ccccc2-3)cc1`, the RP-LC retention time stood at 1110 s.

For the compound `O=C(NCCN1CCCC1)c1cccc(N2CCNC(c3ccccc3)C2)n1` (centres undefined), the RP-LC retention time is 553 s.

For `c1ccc(-c2noc(-c3nc(-c4ccccn4)no3)n2)cc1`, the RP-LC retention time worked out at 958 s.

Regarding `CCOc1ccc(-c2noc(Cn3nc(-c4ccc(CC)cc4)ccc3=O)n2)cc1`, the RP-LC retention time is 597 s.

Compound `CC(C)(C)OC(=O)Cn1cnc2c(-c3ccc(F)cc3)csc2c1=O` showed an RP-LC retention time of 709 s.

`O=S(=O)(c1ccccc1)N1CCN(c2cnn3c(C4CC4)nnc3c2)CC1` showed an RP-LC retention time of 698 s.

`CCc1nccn1Cc1noc(-c2ccco2)n1` yielded an RP-LC retention time of 566 s.

`O=C(COc1ccccc1)N1CCC(OCc2nc(C3CC3)no2)CC1` had an RP-LC retention time of 817 s.

`CCn1c(=O)sc2cc(S(=O)(=O)N3CCC(C(=O)NC4CCC(C)CC4)CC3)ccc21` (centres undefined) yielded an RP-LC retention time of 967 s.

In the case of `COc1cc(NC(=O)C2CCCN(c3cc(=O)n(C)c(=O)n3C)C2)cc(OC)c1OC` (centres undefined), the RP-LC retention time was determined as 854 s.

`COc1cc2c(cc1OC)-c1cc(=Nc3c(C)cc(C)cc3C)n(C)c(=O)n1CC2` returned an RP-LC retention time of 765 s.

As to `O=C(Nc1ccc(-n2cnnn2)cc1)c1csc(Nc2ccccc2)n1`, the RP-LC retention time is 777 s.

Compound `COc1nc2ccccc2nc1N1CCCC(C(=O)NC2CCCCC2C)C1` (centres undefined) showed an RP-LC retention time of 1090 s.

In the case of `Cc1nnc(N2CCC(C(=O)NCCCN3CCCC3=O)CC2)c2nn(-c3ccccc3)c(C)c12`, the RP-LC retention time was found to be 622 s.

Turning to `COC(=O)c1ccc(NC(=O)N2CCC(CCOc3ccc(F)cc3)C2)cc1` (centres undefined), the RP-LC retention time is 981 s.

Consider `c1ccc(-c2cnn3cc(-c4ccc(OCCN5CCOCC5)cc4)cnc23)cc1`, for which the RP-LC retention time worked out at 818 s.

`COCCn1c(SCc2nc(-c3ccccc3C)no2)nc2cc3c(cc2c1=O)OCO3` had an RP-LC retention time of 1120 s.

`CC(C)CCNC(=O)N1CCC(c2cc(N)on2)CC1`: the RP-LC retention time is 659 s.

Turning to `COc1ccc(OC)c(NC(=O)Cn2cccc(-c3nc(-c4ccc(OC)c(OC)c4)no3)c2=O)c1`, the RP-LC retention time was 810 s.

Compound `Nc1cc(C2CCN(C(=O)Nc3ccc(F)cc3F)CC2)no1` had an RP-LC retention time of 666 s.

`CCCOc1nc2ccccc2nc1N1CCCC(C(=O)Nc2ccc(OC)cc2OC)C1` (centres undefined) displayed an RP-LC retention time of 1280 s.

`COc1cccc(N2CCN(c3ccnc(SCC(=O)Nc4ccc5c(c4)OCO5)n3)CC2)c1`: the RP-LC retention time was determined as 728 s.

`O=C(c1ccc(S(=O)(=O)c2ccc(Br)cc2)nc1)N1CCN(c2ccccn2)CC1`: the RP-LC retention time amounted to 673 s.

As for `O=C(NCCc1ccccc1)N1CCc2nc(-c3ccccc3)ncc2C1`, the RP-LC retention time was 860 s.

As for `COCCN1CCC2(CC1)CN(Cc1ccc(F)cc1Cl)Cc1ccccc1O2`, the RP-LC retention time turned out to be 790 s.

On to `CCOc1cc(=O)n2c(c1C(=O)Nc1cccc(Br)c1)CCCC2`, for which the RP-LC retention time was determined as 802 s.

On to `O=C(NCCc1c[nH]c2ccc(F)cc12)c1cn(-c2ccc(F)cc2)nn1`, for which the RP-LC retention time worked out at 914 s.

Regarding `O=C(CN1CCN(Cc2ccccc2)C1=O)N1CCN(C2CCCCC2)CC1`, the RP-LC retention time amounted to 601 s.

In turn, `Cn1c(=O)c(SCC(=O)NCCN2CCCCC2)nc2ccccc21` displayed an RP-LC retention time of 594 s.

`CC(C)c1nncn1C1CCN(C(=O)c2ccc3c(c2)OCO3)C1` (centres undefined) yielded an RP-LC retention time of 612 s.

Turning to `CNC(=O)[C@H](Cc1c[nH]c2ccccc12)NC(=O)[C@@H](CC(=O)NO)CC(C)C`, the RP-LC retention time stood at 662 s.

In the case of `CCCCNC(=O)c1cc(NS(=O)(=O)c2ccc(C(C)(C)C)cc2)cnc1N1CCNCC1`, the RP-LC retention time was found to be 706 s.

`CC1CN=C2C=C(N3CCN(C(=O)CCc4ccccc4)CC3)N=CN21` (centres undefined) gave an RP-LC retention time of 620 s.

For `Cc1ccc(CNC(=O)C2CCCN(c3cnc4nccnc4c3)C2)o1` (centres undefined), the RP-LC retention time was determined as 772 s.

For `Cn1cc(CCN2CCN(S(=O)(=O)c3cccc(Cl)c3)CC2)c2cccnc21`, the RP-LC retention time was 650 s.

In the case of `CCCn1cnc2cc(CNC(=O)Cc3ccsc3)ccc21`, the RP-LC retention time is 619 s.

On to `CCN1C(=O)C2CC3(CCN(C(=O)CN4CCCC4=O)CC3)CN2C1=O` (centres undefined), for which the RP-LC retention time was determined as 600 s.

With `CCS(=O)(=O)N1CC(=O)N(c2cccc(Cl)c2C)C(C)(C(=O)NCc2ccc(F)cc2)C1` (centres undefined), the RP-LC retention time came out at 913 s.

On to `CC1(C(=O)NCc2ccccc2)CCCN(C(=O)NC2CCCCC2)C1` (centres undefined), for which the RP-LC retention time worked out at 857 s.

Take `C/C(=N\Nc1nc2ccccc2s1)c1ccncn1`: the RP-LC retention time was determined as 895 s.

`COc1cc2ncnc(Nc3ccc(Cl)cc3F)c2cc1OC`: the RP-LC retention time stood at 681 s.

Compound `Cn1cccc1CN(C(=O)c1ccc(F)cc1Cl)C1CC1` gave an RP-LC retention time of 915 s.

Regarding `COc1ccc(C(=O)NC2CCN(c3cc(-c4ccc(Cl)cc4)[nH]n3)C2)c(OC)c1` (centres undefined), the RP-LC retention time was found to be 754 s.

`CCn1cc(-c2ccc(Cl)cc2)cc1C(=O)N1CCN(C(C)C)CC1`: the RP-LC retention time worked out at 717 s.

As for `COc1ccc(S(=O)(=O)N2C[C@H]3CN(S(=O)(=O)c4ccccc4)C[C@@H](C2)O3)cc1`, the RP-LC retention time came out at 893 s.

Compound `N#Cc1ccc(C(=O)NCC(=O)N2CCCc3ccccc32)c(F)c1` had an RP-LC retention time of 843 s.

On to `CN(C)CC1(O)CCC2(CCN(C(=O)c3ccoc3)CC2)CC1`, for which the RP-LC retention time worked out at 570 s.

For the compound `COc1cc(NC(=O)N2CC(c3nc(C(C)C)nn3C)C2)cc(OC)c1`, the RP-LC retention time turned out to be 662 s.

With `CC(=O)N(Cc1nn(C)c2c1CN(S(=O)(=O)c1cccc(F)c1)CC2)c1ccccc1`, the RP-LC retention time was found to be 796 s.

`O=C(C1CCN(S(=O)(=O)c2cc(-c3noc(C4CCC4)n3)cs2)CC1)N1CCCCCC1` gave an RP-LC retention time of 1050 s.

`Cc1cc(C(=O)Nc2ccc(Br)cc2F)n(-c2ccccc2)n1` showed an RP-LC retention time of 1010 s.

The compound `CC(C)n1c(-c2cccc(C(=O)NC3CCCC3)c2)nc2cccnc21` registered an RP-LC retention time of 796 s.

The compound `Cc1ccc(N2CC(c3noc(-c4sccc4C)n3)CC2=O)cc1` (centres undefined) returned an RP-LC retention time of 1040 s.

Take `Cc1ccc(F)cc1NC(=O)c1sc(-c2cn(C)c3ncccc23)nc1C`: the RP-LC retention time turned out to be 983 s.

Values taken from the METLIN SMRT retention time set (Domingo-Almenara et al. 2019).
